Laboratory results from patent US11059780B2, “Substituted pyrrolidine compound and use thereof” (Takeda Pharmaceutical Company Limited, priority 2017, dated 2021).

biological target: T1, human orexin type 2 receptor (hOX2R) (Homo sapiens, UniProt O43614); experiment: Measurement of orexin type 2 receptor agonist activity (Fluo-4 calcium fluorescence, CHO cells forcibly expressing human OX2 receptor); assay type: cell-based; details: test compound 3 μM, DMSO = 0%, orexin A (human) 10 nM = 100%
T1 construct: expressed in transfected cells
T1 sequence (O43614 1-444): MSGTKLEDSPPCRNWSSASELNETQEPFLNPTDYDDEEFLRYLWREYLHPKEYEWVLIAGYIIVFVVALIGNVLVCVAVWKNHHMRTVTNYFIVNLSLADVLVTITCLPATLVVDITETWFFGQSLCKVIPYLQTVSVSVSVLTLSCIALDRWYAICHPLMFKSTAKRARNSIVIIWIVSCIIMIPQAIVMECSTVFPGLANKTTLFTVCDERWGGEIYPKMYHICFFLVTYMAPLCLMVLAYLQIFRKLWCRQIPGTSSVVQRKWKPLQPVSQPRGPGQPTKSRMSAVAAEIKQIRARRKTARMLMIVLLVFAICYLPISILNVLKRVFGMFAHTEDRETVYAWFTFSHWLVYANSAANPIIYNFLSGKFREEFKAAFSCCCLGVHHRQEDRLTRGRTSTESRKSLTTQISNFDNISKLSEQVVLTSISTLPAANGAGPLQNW
Description: Experimental Example 1: Obtainment of Cell Stably Expressing Human Orexin Type 2 Receptor (hOX2R)
To obtain a cell clone stably expressing human orexin type 2 receptor, human orexin type 2 receptor cDNA was inserted into pcDNA3.1(+) plasmid vector (Invitrogen), and a plasmid DNA for expression of human orexin type 2 receptor (pcDNA3.1(+)/hOX2R) was cloned. The plasmid DNA was introduced into CHO-dhfr cell by an electroporation method, and human orexin type 2 receptor expressing clone cells were obtained by limiting dilution method by using G418 drug resistance as a selection marker.
Experimental Example 2: Measurement of Orexin Type 2 Receptor Agonist Activity
CHO cells forcibly expressing human OX2 receptor were seeded in each well of 384 well black transparent bottom plate (BD Falcon) at 7,500 cells/well, and cultured for one day in a 5% CO2 incubator at 37° C. After removal of the medium in the cell plate, assay buffer A containing a calcium indicator (HBSS (Life Technologies), 20 mM HEPES (Life Technologies), 0.1% BSA (Wako Pure Chemical Industries, Ltd.), 2.5 μg/mL Fluo-4 AM (DOJINDO Chemical), 0.08% Pluronic F127 (DOJINDO Chemical), 1.25 mM probenecid (DOJINDO Chemical)) was added at 30 μL/well. The plate was stood for 30 min in a 5% CO2 incubator at 37° C., and further stood at room temperature for 30 min. A test compound prepared by diluting with assay buffer B (HBSS, 20 mM HEPES, 0.1% BSA) was added at 10 μL/well, and the fluorescence value was measured by FDSSpCELL (Hamamatsu Photonics K.K.) every one sec for 1 min, and thereafter every two sec for 1 min 40 sec. The activity (%) of the test compound was calculated assuming that variation in the fluorescence value when DMSO was added instead of the test compound was 0% […], and variation in the fluorescence value when orexin A (human) (PEPTIDE INSTITUTE, INC.) was added at the final concentration of 10 nM was 100% […]. The activity of each compound at the concentration of 3 μM was shown below.

First: CO[C@@H]1CN(C(=O)c2cc(C)ccc2C)C[C@H]1Oc1cccc(C(F)S(=O)(=O)N2CCCC2c2ccccn2)c1 (relative stereo) [Example 110, trans-(2,5-dimethylphenyl)(3-(3-(fluoro((2-(pyridin-2-yl)pyrrolidin-1-yl)sulfonyl)methyl)phenoxy)-4-methoxypyrrolidin-1-yl)methanone]
Second: CO[C@@H]1CN(C(=O)c2cc(C)ccc2C)C[C@H]1Oc1cccc(CS(=O)(=O)N2CCCC2c2ccccc2Cl)c1 (relative stereo) [Example 37, trans-(3-(3-(((2-(2-chlorophenyl)pyrrolidin-1-yl)sulfonyl)methyl)phenoxy)-4-methoxypyrrolidin-1-yl)(2,5-dimethylphenyl)methanone]
The “OX2R agonist activity (3 μM, %)” value of the first is lower: 67% for the first, 86% for the second.

First: CO[C@@H]1CN(C(=O)Oc2ccccc2C)C[C@H]1Oc1cccc(NS(=O)(=O)N2CC3CC3C2)c1 (stereo partly drawn) [Example 138, 2-methylphenyl(3R,4R)-3-(3-((3-azabicyclo[3.1.0]hex-3-ylsulfonyl)amino)phenoxy)-4-methoxypyrrolidine-1-carboxylate]
Second: CO[C@@H]1CN(C(=O)Oc2c(C)cccc2C)C[C@H]1Oc1cccc(NS(=O)(=O)N2CC3CC3C2)c1 (stereo partly drawn) [Example 148, 2,6-dimethylphenyl(3R,4R)-3-(3-((3-azabicyclo[3.1.0]hex-3-ylsulfonyl)amino)phenoxy)-4-methoxypyrrolidine-1-carboxylate]
The “OX2R agonist activity (3 μM, %)” value of the first is lower: 38% for the first, 76% for the second.

Going from `CCc1cccc(C)c1C(=O)N1C[C@@H](OC)[C@H](Oc2cccc(CS(=O)(=O)N(C)C3CCOCC3)c2)C1` (relative stereo) [Example 155, trans-1-(3-((-1-(2-ethyl-6-methylbenzoyl)-4-methoxypyrrolidin-3-yl)oxy)phenyl)-N-methyl-N-(tetrahydro-2H-pyran-4-yl)methanesulfonamide] to `CCc1cccc(C)c1C(=O)N1CC[C@H](Oc2cccc(CS(=O)(=O)N(C)C3CCOCC3)c2)C1` [Example 159, 1-(3-(((3S)-1-(2-ethyl-6-methylbenzoyl)pyrrolidin-3-yl)oxy)phenyl)-N-methyl-N-(tetrahydro-2H-pyran-4-yl)methansulfo], the “OX2R agonist activity (3 μM, %)” value falls from 108% to 89%.

Going from `CO[C@@H]1CN(C(=O)c2cc(C)ccc2C)C[C@H]1Oc1cccc(NS(=O)(=O)N(C)CC2CCOC2)c1` (relative stereo) [Example 62, trans-N′-(3-((1-(2,5-dimethylbenzoyl)-4-methoxypyrrolidin-3-yl)oxy)phenyl)-N-methyl-N-(tetrahydrofuran-3-ylmethyl)sulfuric diamide] to `CO[C@@H]1CN(C(=O)c2cc(C)ccc2C)C[C@H]1Oc1cccc(NS(=O)(=O)N(C)C2CC2)c1` (relative stereo) [Example 44, trans-N-cyclopropyl-N′-(3-((1-(2,5-dimethylbenzoyl)-4-methoxypyrrolidin-3-yl)oxy)phenyl)-N-methylsulfuric diamide], the “OX2R agonist activity (3 μM, %)” value falls from 74% to 73%.

Going from `COc1cccc(C)c1C(=O)N1C[C@@H](OC)[C@H](Oc2cccc(NS(=O)(=O)N3CC4CC4C3)c2)C1` (stereo partly drawn) [Example 121, N-(3-(((3R,4R)-4-methoxy-1-(2-methoxy-6-methylbenzoyl)pyrrolidin-3-yl)oxy)phenyl)-3-azabicyclo[3.1.0]hexane-3-sulfonamide] to `CO[C@@H]1CN(C(=O)c2cc(C)ccc2C)C[C@H]1Oc1cccc(NS(=O)(=O)N2CC3CC3C2)c1` (stereo partly drawn) [Example 109, N-(3-(((3R,4R)-1-(2,5-dimethylbenzoyl)-4-methoxypyrrolidin-3-yl)oxy)phenyl)-3-azabicyclo[3.1.0]hexane-3-sulfonamide], the “OX2R agonist activity (3 μM, %)” value falls from 114% to 84%.

`COC1CN(C(=O)c2cc(C)ccc2C)CC1Oc1cccc(NS(=O)(=O)N2CC[C@H]3CCN(C)C[C@@H]32)c1` (relative stereo) [Example 76, trans-N-(3-((1-(2,5-dimethylbenzoyl)-4-methoxypyrrolidin-3-yl)oxy)phenyl)-6-methyloctahydro-1H-pyrrolo[2,3-c]pyridine-1-sulfonamide] and `CO[C@@H]1CN(C(=O)c2cc(C)ccc2C)C[C@H]1Oc1cccc(NS(=O)(=O)N2CCC3(CC3)C2)c1` (relative stereo) [Example 69, trans-N-(3-((1-(2,5-dimethylbenzoyl)-4-methoxypyrrolidin-3-yl)oxy)phenyl)-5-azaspiro[2.4]heptane-5-sulfonamide] are the same in “OX2R agonist activity (3 μM, %)” value: 82% for the first, 82% for the second.

First: CCc1ccccc1C(=O)N1C[C@@H](OC)[C@H](Oc2cccc(NS(=O)(=O)N3CC4CC4C3)c2)C1 (stereo partly drawn) [Example 129, N-(3-(((3R,4R)-1-(2-ethylbenzoyl)-4-methoxypyrrolidin-3-yl)oxy)phenyl)-3-azabicyclo[3.1.0]hexane-3-sulfonamide]
Second: CO[C@@H]1CN(C(=O)c2cc(C)ccc2C)C[C@H]1Oc1cccc(NS(=O)(=O)N2CCC3(COC3)C2)c1 (relative stereo) [Example 70, trans-N-(3-((1-(2,5-dimethylbenzoyl)-4-methoxypyrrolidin-3-yl)oxy)phenyl)-2-oxa-6-azaspiro[3.4]octane-6-sulfonamide]
The “OX2R agonist activity (3 μM, %)” value of the first is higher: 96% for the first, 90% for the second.

Going from `COc1cccc(OC)c1C(=O)N1C[C@@H](OC)[C@H](Oc2cccc(CS(=O)(=O)N3CCCC3c3ccccn3)c2)C1` (relative stereo) [Example 100, trans-(2,6-dimethoxyphenyl)(3-methoxy-4-(3-(((2-(pyridin-2-yl)pyrrolidin-1-yl)sulfonyl)methyl)phenoxy)pyrrolidin-1-yl)methanone] to `COc1cccc(C)c1C(=O)N1C[C@@H](OC)[C@H](Oc2cccc(CS(=O)(=O)N3CCCC3c3ccccn3)c2)C1` (relative stereo) [Example 119, trans-(2-methoxy-6-methylphenyl)(3-methoxy-4-(3-(((2-(pyridin-2-yl)pyrrolidin-1-yl)sulfonyl)methyl)phenoxy)pyrrolidin-1-yl)methanone], the “OX2R agonist activity (3 μM, %)” value rises from 93% to 100%.

Going from `CO[C@@H]1CN(C(=O)c2cc(C)ccc2C)C[C@H]1Oc1cccc(CS(=O)(=O)N2CCCC2c2ccc(C)nc2C)c1` (relative stereo) [Example 123, trans-(2,5-dimethylphenyl)(3-(3-(((2-(2,6-dimethylpyridin-3-yl)pyrrolidin-1-yl)sulfonyl)methyl)phenoxy)-4-methoxypyrrolidin-1-yl)methanone] to `CO[C@@H]1CN(C(=O)c2cc(C)ccc2C)C[C@H]1Oc1cccc(CS(=O)(=O)N2CCCC2)c1` (relative stereo) [Example 5, trans-(2,5-dimethylphenyl)(3-methoxy-4-(3-((pyrrolidin-1-ylsulfonyl)methyl)phenoxy)pyrrolidin-1-yl)methanone], the “OX2R agonist activity (3 μM, %)” value falls from 102% to 32%.

Going from `CO[C@@H]1CN(C(=O)c2cc(C)ccc2C)C[C@H]1Oc1cccc(NS(=O)(=O)N(C)Cc2cccnc2)c1` (relative stereo) [Example 61, trans-N′-(3-((1-(2,5-dimethylbenzoyl)-4-methoxypyrrolidin-3-yl)oxy)phenyl)-N-methyl-N-(pyridin-3-ylmethyl)sulfuric diamide] to `COC1CN(C(=O)c2cc(C)ccc2C)CC1Oc1cc(NS(=O)(=O)N2C[C@@H]3C[C@H]3C2)cc(F)n1` (relative stereo) [Example 116, trans-N-(2-((1-(2,5-dimethylbenzoyl)-4-methoxypyrrolidin-3-yl)oxy)-6-fluoropyridin-4-yl)-3-azabicyclo[3.1.0]hexane-3-sulfonamide], the “OX2R agonist activity (3 μM, %)” value falls from 87% to 68%.

With `COc1nccc(C)c1C(=O)N1C[C@@H](OC)[C@H](Oc2cccc(CS(=O)(=O)N(C)C3CCOCC3)c2)C1` (relative stereo) [Example 161, trans-1-(3-((4-methoxy-1-((2-methoxy-4-methylpyridin-3-yl)carbonyl)pyrrolidin-3-yl)oxy)phenyl)-N-methyl-N-(tetrahydro-2H-pyran-4-yl)methanesulfonamide] the “OX2R agonist activity (3 μM, %)” value was 102%.
